19 compounds from BindingDB's records for doi:10.1021/jm00101a008 (Centre De Recherche De Vitry-Alfortville, 1992) can be followed below.

For the first assay, the target named is Leukotriene B4 receptor (Cavia porcellus). Briefly: Inhibition of [3H]LTB4 binding to Leukotriene B4 receptor in the guinea pig spleen membranes.
As a reminder, the IC50 is the concentration at which inhibition is half-maximal. Low values mean greater potency, high ones weaker potency. For the compound `CC(C)(CCCCCCOc1cc(-c2ccccc2)cc(-c2ccccc2)n1)C(=O)O`, the IC50 came to 22 nM.

As to `O=C(O)CCCCCOc1cc(-c2ccccc2)cc(-c2ccccc2)n1`, the IC50 worked out at 3 nM.

In turn, `CC(C)(CCCCOc1cc(-c2ccc(N)cc2)cc(-c2ccccc2)n1)C(=O)O` came in with an IC50 of 6.6 nM.

Compound `O=C(O)CCCCOc1cc(-c2ccccc2)cc(-c2ccccc2)n1` displayed a half-inhibitory concentration (IC50) of 50 nM.

For `CC(CCCCOc1cc(-c2ccccc2)cc(-c2ccccc2F)n1)C(=O)O` (centres undefined), the IC50 is 4 nM.

In the case of `O=C(O)CCCCCOc1cc(-c2ccccc2Cl)cc(-c2ccccc2)n1`, the half-inhibitory concentration (IC50) came out at 200 nM.

With `COC(=O)CCCCCOc1cc(-c2ccccc2)cc(-c2ccccc2)n1`, the half-maximal inhibitory concentration (IC50) came out at 40 nM.

Consider `O=C(O)CCCCCOc1cc(-c2ccc([N+](=O)[O-])cc2)cc(-c2ccccc2)n1`, for which the 50% inhibitory concentration (IC50) came out at 50 nM.

In turn, `CC(CCCCOc1cc(-c2ccc3c(c2)OCO3)cc(-c2ccccc2Cl)n1)C(=O)O` (centres undefined) displayed an IC50 of 2 nM.

The compound `O=C(O)CCCCCOc1cc(-c2ccc3c(c2)OCO3)cc(-c2ccccc2)n1` came in with a half-maximal inhibitory concentration (IC50) of 1 nM.

As for `O=C(O)CCCCCOc1cc(-c2ccc(NC(=O)C(F)(F)F)cc2)cc(-c2ccccc2)n1`, the IC50 was determined as 150 nM.

The compound `CC(CCCCOc1cc(-c2ccc3c(c2)OCO3)cc(-c2ccccc2)n1)C(=O)O` (centres undefined) registered an IC50 of 4.2 nM.

`CC(CCCCOc1cc(-c2ccccc2)cc(-c2ccccc2)n1)C(=O)O` (centres undefined) showed a half-maximal inhibitory concentration (IC50) of 4 nM.

Compound `O=C(O)CCCCCCOc1cc(-c2ccccc2)cc(-c2ccccc2)n1` displayed a 50% inhibitory concentration (IC50) of 25 nM.

The next assay shares this target. Described as above. This is another data set of the same source.
The compound `COc1ccc(-c2cc(-c3ccccc3)cc(OCCCCCC(=O)O)n2)cc1` showed a concentration for half-maximal inhibition (IC50) of 1000 nM.

With `N#CCCCCCOc1cc(-c2ccccc2)cc(-c2ccccc2)n1`, the IC50 stood at 700 nM.

Regarding `Cc1ccc(-c2cc(-c3ccccc3)cc(OCCCCCC(=O)O)n2)cc1`, the 50% inhibitory concentration (IC50) stood at 300 nM.

`NC(=O)CCCCCOc1cc(-c2ccccc2)cc(-c2ccccc2)n1`: the IC50 came out at 160 nM.

In the case of `O=C(O)CCCOc1cc(-c2ccccc2)cc(-c2ccccc2)n1`, the IC50 stood at 300 nM.
